Source: ChEMBL document CHEMBL4138123, “Design, synthesis and biological evaluation of novel pyrazolochalcones as potential modulators of PI3K/Akt/mTOR pathway and inducers of apoptosis in breast cancer cells” (Eur J Med Chem, 2017)

What was measured:
Type in all cases: functional
K562 = test: Cytotoxicity against human K562 cells assessed as growth inhibition after 48 hrs by sulforhodamine B assay; details: K562, 48 h
A549 [1] = test: Cytotoxicity against human A549/ATCC cells assessed as growth inhibition after 48 hrs by sulforhodamine B assay; details: A549, 48 h
HCT-116 [2] = test: Cytotoxicity against human HCT116 cells assessed as growth inhibition after 48 hrs by sulforhodamine B assay; details: HCT-116, 48 h
Malme-3M [3] = test: Cytotoxicity against human MALME-3M cells assessed as growth inhibition after 48 hrs by sulforhodamine B assay
M14 = test: Cytotoxicity against human M14 cells assessed as growth inhibition after 48 hrs by sulforhodamine B assay; details: M14, 48 h
OVCAR-8 [4] = test: Cytotoxicity against human OVCAR8 cells assessed as growth inhibition after 48 hrs by sulforhodamine B assay; details: OVCAR-8, 48 h
CCRF-CEM [5] = test: Cytotoxicity against human CCRF-CEM cells assessed as cell growth at 0.01 uM after 48 hrs by sulforhodamine B assay relative to control; details: read-out: Activity
MDA-MB-435 = test: Cytotoxicity against human MDA-MB-435 cells assessed as cell growth at 0.01 uM after 48 hrs by sulforhodamine B assay relative to control; details: MDA-MB-435, 48 h, read-out: Activity
SF-268 = test: Cytotoxicity against human SF268 cells assessed as cell growth at 0.01 uM after 48 hrs by sulforhodamine B assay relative to control; details: SF-268, 48 h, read-out: Activity
HT-29 [6] = test: Cytotoxicity against human HT-29 cells assessed as cell growth at 0.01 uM after 48 hrs by sulforhodamine B assay relative to control; details: HT-29, 48 h, read-out: Activity
A549 [7] = test: Cytotoxicity against human A549/ATCC cells assessed as cell growth at 0.01 uM after 48 hrs by sulforhodamine B assay relative to control; details: A549, 48 h, read-out: Activity
RPMI-8226 [8] = test: Cytotoxicity against human RPMI8226 cells assessed as cell growth at 0.01 uM after 48 hrs by sulforhodamine B assay relative to control; details: RPMI-8226, 48 h, read-out: Activity
PC-3 = test: Cytotoxicity against human PC3 cells assessed as cell growth at 0.01 uM after 48 hrs by sulforhodamine B assay relative to control; details: PC-3, 48 h, read-out: Activity
HCT-15 = test: Cytotoxicity against human HCT15 cells assessed as cell growth at 0.1 uM after 48 hrs by sulforhodamine B assay relative to control; details: HCT-15, 48 h, read-out: Activity
HT-29 [9] = test: Cytotoxicity against human HT-29 cells assessed as cell growth at 0.1 uM after 48 hrs by sulforhodamine B assay relative to control; details: HT-29, 48 h, read-out: Activity
SK-MEL-28 = test: Cytotoxicity against human SK-MEL-28 cells assessed as cell growth at 0.1 uM after 48 hrs by sulforhodamine B assay relative to control; details: SK-MEL-28, 48 h, read-out: Activity
MDA-MB-468 = test: Cytotoxicity against human MDA-MB-468 cells assessed as cell growth at 0.1 uM after 48 hrs by sulforhodamine B assay relative to control; details: MDA-MB-468, 48 h, read-out: Activity
CCRF-CEM [10] = test: Cytotoxicity against human CCRF-CEM cells assessed as cell growth at 1 uM after 48 hrs by sulforhodamine B assay relative to control; details: read-out: Activity
NCI-H460 = test: Cytotoxicity against human NCI-H460 cells assessed as cell growth at 1 uM after 48 hrs by sulforhodamine B assay relative to control; details: NCI-H460, 48 h, read-out: Activity
SW-620 [11] = test: Cytotoxicity against human SW620 cells assessed as cell growth at 1 uM after 48 hrs by sulforhodamine B assay relative to control; details: SW-620, 48 h, read-out: Activity
UACC-257 = test: Cytotoxicity against human UACC257 cells assessed as cell growth at 1 uM after 48 hrs by sulforhodamine B assay relative to control; details: UACC-257, 48 h, read-out: Activity
OVCAR-8 [12] = test: Cytotoxicity against human OVCAR8 cells assessed as cell growth at 1 uM after 48 hrs by sulforhodamine B assay relative to control; details: OVCAR-8, 48 h, read-out: Activity
NCI-H226 [13] = test: Cytotoxicity against human NCI-H226 cells assessed as cell growth at 10 uM after 48 hrs by sulforhodamine B assay relative to control; details: NCI-H226, 48 h, read-out: Activity
SW-620 [14] = test: Cytotoxicity against human SW620 cells assessed as cell growth at 10 uM after 48 hrs by sulforhodamine B assay relative to control; details: SW-620, 48 h, read-out: Activity
U-251 = test: Cytotoxicity against human U251 cells assessed as cell growth at 10 uM after 48 hrs by sulforhodamine B assay relative to control; details: U-251, 48 h, read-out: Activity
Malme-3M [15] = test: Cytotoxicity against human MALME-3M cells assessed as cell growth at 10 uM after 48 hrs by sulforhodamine B assay relative to control; details: read-out: Activity
OVCAR-8 [16] = test: Cytotoxicity against human OVCAR8 cells assessed as cell growth at 10 uM after 48 hrs by sulforhodamine B assay relative to control; details: OVCAR-8, 48 h, read-out: Activity
DU-145 = test: Cytotoxicity against human DU145 cells assessed as cell growth at 10 uM after 48 hrs by sulforhodamine B assay relative to control; details: DU-145, 48 h, read-out: Activity
RPMI-8226 [17] = test: Cytotoxicity against human RPMI8226 cells assessed as cell growth at 100 uM after 48 hrs by sulforhodamine B assay relative to control; details: RPMI-8226, 48 h, read-out: Activity
NCI-H226 [18] = test: Cytotoxicity against human NCI-H226 cells assessed as cell growth at 100 uM after 48 hrs by sulforhodamine B assay relative to control; details: NCI-H226, 48 h, read-out: Activity
COLO 205 = test: Cytotoxicity against human COLO205 cells assessed as cell growth at 100 uM after 48 hrs by sulforhodamine B assay relative to control; details: COLO 205, 48 h, read-out: Activity
HCT-116 [19] = test: Cytotoxicity against human HCT116 cells assessed as cell growth at 100 uM after 48 hrs by sulforhodamine B assay relative to control; details: HCT-116, 48 h, read-out: Activity
SF-539 = test: Cytotoxicity against human SF539 cells assessed as cell growth at 100 uM after 48 hrs by sulforhodamine B assay relative to control; details: SF-539, 48 h, read-out: Activity
SNB-19 = test: Cytotoxicity against human SNB19 cells assessed as cell growth at 100 uM after 48 hrs by sulforhodamine B assay relative to control; details: SNB-19, 48 h, read-out: Activity
Malme-3M [20] = test: Cytotoxicity against human MALME-3M cells assessed as cell growth at 100 uM after 48 hrs by sulforhodamine B assay relative to control; details: read-out: Activity
SN12C = test: Cytotoxicity against human SN12C cells assessed as cell growth at 100 uM after 48 hrs by sulforhodamine B assay relative to control; details: read-out: Activity

In the case of `COc1ccc(-c2cc(/C=C/C(=O)c3cc(OC)c(OC)c(OC)c3)[nH]n2)cc1OC`, the GI50 (K562) is reported as 730 nM, the LC50 (concentration killing 50% of cells) (K562) is reported as greater than 100 µM and the TGI (K562) is reported as 9.71 µM. It also gave a GI50 (A549 [1]) of 2390 nM, an LC50 (concentration giving 50% net cell kill) (A549 [1]) of 62.4 µM and a TGI (A549 [1]) of 9.34 µM. The GI50 (HCT-116 [2]) was 420 nM, the LC50 (HCT-116 [2]) was 5.18 µM and the TGI (HCT-116 [2]) was 1790 nM. The GI50 (Malme-3M [3]) was 2320 nM, the LC50 (Malme-3M [3]) was 47.5 µM and the TGI (Malme-3M [3]) was 6.19 µM. It also gave a GI50 (M14) of 1800 nM, an LC50 (concentration killing 50% of cells) (M14) of 7.54 µM and a TGI (M14) of 3.69 µM. It also gave a GI50 (OVCAR-8 [4]) of 2550 nM, an LC50 (OVCAR-8 [4]) of 42.1 µM and a TGI (OVCAR-8 [4]) of 11.7 µM. The growth at 0.01 µM (CCRF-CEM [5]) was 97%, the growth at 0.01 µM (MDA-MB-435) was 98% and the growth at 0.01 µM (SF-268) was 99%. The growth at 0.01 µM (HT-29 [6]) was 101%, the growth at 0.01 µM (A549 [7]) was 101% and the growth at 0.01 µM (RPMI-8226 [8]) was 97%. For the same molecule, the growth at 0.01 µM (PC-3) was 97%, the growth at 0.1 µM (HCT-15) was 90% and the growth at 0.1 µM (HT-29 [9]) was 99%. For the same molecule, the growth at 0.1 µM (SK-MEL-28) was 91%, the growth at 0.1 µM (MDA-MB-468) was 91% and the growth at 1 µM (CCRF-CEM [10]) was 14%. The growth at 1 µM (NCI-H460) was 52%, the growth at 1 µM (SW-620 [11]) was 70% and the growth at 1 µM (UACC-257) was 89%. The growth at 1 µM (OVCAR-8 [12]) was 80%, the growth at 10 µM (NCI-H226 [13]) was -8% and the growth at 10 µM (SW-620 [14]) was -43%. It also gave a growth at 10 µM (U-251) of -97%, a growth at 10 µM (Malme-3M [15]) of -25% and a growth at 10 µM (OVCAR-8 [16]) of 6%. For the same molecule, the growth at 10 µM (DU-145) was -55%, the growth at 100 µM (RPMI-8226 [17]) was -31% and the growth at 100 µM (NCI-H226 [18]) was -43%. The growth at 100 µM (COLO 205) was -88%, the growth at 100 µM (HCT-116 [19]) was -61% and the growth at 100 µM (SF-539) was -87%. For the same molecule, the growth at 100 µM (SNB-19) was -77%, the growth at 100 µM (Malme-3M [20]) was -62% and the growth at 100 µM (SN12C) was -67%.
In the case of `COc1ccc(-c2cc(/C=C/C(=O)c3ccc(OC)c(OC)c3)[nH]n2)cc1`, the GI50 (K562) is reported as 1280 nM, the LC50 (concentration killing 50% of cells) (K562) is reported as greater than 100 µM and the TGI (K562) is reported as 10.7 µM. The GI50 (A549 [1]) was 1880 nM, the LC50 (concentration giving 50% net cell kill) (A549 [1]) was greater than 100 µM and the TGI (A549 [1]) was 5.95 µM. It also gave a GI50 (HCT-116 [2]) of 1010 nM, an LC50 (HCT-116 [2]) of 6.08 µM and a TGI (HCT-116 [2]) of 2480 nM. It also gave a GI50 (Malme-3M [3]) of 1620 nM, an LC50 (Malme-3M [3]) of 7.38 µM and a TGI (Malme-3M [3]) of 3.45 µM. It also gave a GI50 (M14) of 2170 nM, an LC50 (concentration killing 50% of cells) (M14) of 13.8 µM and a TGI (M14) of 4.97 µM. It also gave a GI50 (OVCAR-8 [4]) of 2160 nM, an LC50 (OVCAR-8 [4]) of 57.6 µM and a TGI (OVCAR-8 [4]) of 10.4 µM. It also gave a growth at 0.01 µM (CCRF-CEM [5]) of 102%, a growth at 0.01 µM (MDA-MB-435) of 97% and a growth at 0.01 µM (SF-268) of 101%. It also gave a growth at 0.01 µM (HT-29 [6]) of 101%, a growth at 0.01 µM (A549 [7]) of 93% and a growth at 0.01 µM (RPMI-8226 [8]) of 106%. For the same molecule, the growth at 0.01 µM (PC-3) was 95%, the growth at 0.1 µM (HCT-15) was 97% and the growth at 0.1 µM (HT-29 [9]) was 101%. The growth at 0.1 µM (SK-MEL-28) was 98%, the growth at 0.1 µM (MDA-MB-468) was 90% and the growth at 1 µM (CCRF-CEM [10]) was 63%. The growth at 1 µM (NCI-H460) was 75%, the growth at 1 µM (SW-620 [11]) was 65% and the growth at 1 µM (UACC-257) was 87%. The growth at 1 µM (OVCAR-8 [12]) was 75%, the growth at 10 µM (NCI-H226 [13]) was -64% and the growth at 10 µM (SW-620 [14]) was -52%. For the same molecule, the growth at 10 µM (U-251) was -97%, the growth at 10 µM (Malme-3M [15]) was -70% and the growth at 10 µM (OVCAR-8 [16]) was 1%. For the same molecule, the growth at 10 µM (DU-145) was -91%, the growth at 100 µM (RPMI-8226 [17]) was -62% and the growth at 100 µM (NCI-H226 [18]) was -43%. The growth at 100 µM (COLO 205) was -77%, the growth at 100 µM (HCT-116 [19]) was -100% and the growth at 100 µM (SF-539) was -99%. For the same molecule, the growth at 100 µM (SNB-19) was -96%, the growth at 100 µM (Malme-3M [20]) was -100% and the growth at 100 µM (SN12C) was -86%.
